Experimental findings from publication PMC3914206 are described below.

What all share (format): binding
Details in all cases: Compound Concentration 10 µM

In test [1] the target is T1, panel of 442 kinases (Homo sapiens, UniProt P78368).
T1 construct: purchased KINOMEscan
From the text: (§1) We assessed the selectivity of members of this scaffold using the KINOMEscan methodology across a near comprehensive panel of 442 kinases [[18,27]].

Test [2] has as its target T2, panel of 442 kinases (Homo sapiens, UniProt P51812).
T2 construct: purchased KINOMEscan
Description: as §1

The target in test [3] is T3, panel of 442 kinases (Homo sapiens, UniProt Q9BVS4).
T3 construct: purchased KINOMEscan
Description: as §1

T1 sequence (P78368 whole entry): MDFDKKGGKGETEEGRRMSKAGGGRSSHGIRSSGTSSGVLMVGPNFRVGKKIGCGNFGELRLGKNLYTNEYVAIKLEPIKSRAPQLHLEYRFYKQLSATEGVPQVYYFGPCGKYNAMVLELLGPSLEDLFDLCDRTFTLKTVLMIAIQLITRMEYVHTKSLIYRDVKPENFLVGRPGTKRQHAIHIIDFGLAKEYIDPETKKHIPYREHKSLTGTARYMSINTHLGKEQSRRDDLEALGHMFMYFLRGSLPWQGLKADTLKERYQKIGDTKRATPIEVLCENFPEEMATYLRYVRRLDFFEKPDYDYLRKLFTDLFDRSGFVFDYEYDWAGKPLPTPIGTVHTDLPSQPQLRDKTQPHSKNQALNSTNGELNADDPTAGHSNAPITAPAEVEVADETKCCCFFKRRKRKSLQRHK
T3 sequence (Q9BVS4 whole entry): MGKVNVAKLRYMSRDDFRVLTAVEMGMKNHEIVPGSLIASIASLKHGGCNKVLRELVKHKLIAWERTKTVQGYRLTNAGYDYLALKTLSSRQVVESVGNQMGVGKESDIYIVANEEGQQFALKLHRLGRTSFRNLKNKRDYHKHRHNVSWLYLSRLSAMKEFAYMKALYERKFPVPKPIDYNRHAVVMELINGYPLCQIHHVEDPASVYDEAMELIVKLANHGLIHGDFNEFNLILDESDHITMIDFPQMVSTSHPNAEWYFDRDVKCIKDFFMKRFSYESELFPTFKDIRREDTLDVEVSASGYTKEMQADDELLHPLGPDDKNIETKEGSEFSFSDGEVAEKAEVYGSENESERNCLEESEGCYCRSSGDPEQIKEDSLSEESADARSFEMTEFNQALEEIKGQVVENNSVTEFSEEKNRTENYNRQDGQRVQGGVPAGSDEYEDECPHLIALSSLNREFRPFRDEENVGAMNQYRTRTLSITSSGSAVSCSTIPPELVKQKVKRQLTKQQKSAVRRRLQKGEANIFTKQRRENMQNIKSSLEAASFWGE
T2 sequence (P51812 whole entry): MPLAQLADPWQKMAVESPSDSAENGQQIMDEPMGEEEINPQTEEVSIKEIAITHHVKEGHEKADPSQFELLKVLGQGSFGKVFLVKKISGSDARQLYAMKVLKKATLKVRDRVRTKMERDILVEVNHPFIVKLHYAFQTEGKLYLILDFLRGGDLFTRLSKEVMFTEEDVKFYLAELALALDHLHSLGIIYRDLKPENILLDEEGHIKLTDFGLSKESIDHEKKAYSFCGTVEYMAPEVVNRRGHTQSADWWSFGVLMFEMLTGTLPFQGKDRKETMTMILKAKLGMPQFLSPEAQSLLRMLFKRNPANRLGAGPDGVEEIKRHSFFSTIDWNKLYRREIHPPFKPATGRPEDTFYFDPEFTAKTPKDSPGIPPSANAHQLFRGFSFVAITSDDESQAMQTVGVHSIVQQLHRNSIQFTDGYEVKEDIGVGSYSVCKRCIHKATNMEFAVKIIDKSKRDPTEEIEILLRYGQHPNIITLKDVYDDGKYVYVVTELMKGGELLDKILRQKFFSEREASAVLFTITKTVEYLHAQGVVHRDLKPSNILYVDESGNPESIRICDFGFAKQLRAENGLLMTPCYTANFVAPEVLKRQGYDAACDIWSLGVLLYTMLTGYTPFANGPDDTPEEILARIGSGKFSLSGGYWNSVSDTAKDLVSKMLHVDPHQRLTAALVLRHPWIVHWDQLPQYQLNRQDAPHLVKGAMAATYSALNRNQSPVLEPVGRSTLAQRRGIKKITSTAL

As to `COc1cc(C(=O)N2CCC(N3CCN(C)CC3)CC2)ccc1Nc1ncc2c(n1)N(C1CCCC1)c1ccccc1C(=O)N2C` [Compound 25, 11-cyclopentyl-2-((2-methoxy-4-(4-(4-methylpiperazin-1-yl)piperidine-1-carbonyl)phenyl)amino)-5-methyl-5H-benzo[e]pyrimido[5,4-b][1,4]diazepin-6(11H)-one], on panel of 442 kinases [1], the “KINOMEscan: CSNK1G2” value was determined as 91. The “KINOMEscan: RSK2(Kin.Dom.1-N-terminal)” value at panel of 442 kinases [2] was determined as 100. Further, at panel of 442 kinases [3], the “KINOMEscan: RIOK2” value amounted to 93.

`COc1cc(C(=O)N2CCC(N3CCN(C)CC3)CC2)ccc1Nc1ncc2c(n1)N1CCc3cccc(c31)C(=O)N2C` [Compound 24]: the “KINOMEscan: RIOK2” value on panel of 442 kinases [3] is on record as 81.

`COc1cc(C(=O)N2CCC(N3CCN(C)CC3)CC2)ccc1Nc1ncc2c(n1)N(C)c1ccccc1C(=O)N2C` [15 (LRRK2-IN-1)]: the “KINOMEscan: CSNK1G2” value on panel of 442 kinases [1] was found to be 100. Further, at panel of 442 kinases [2], the “KINOMEscan: RSK2(Kin.Dom.1-N-terminal)” value is listed as 77. Moreover, the “KINOMEscan: RIOK2” value on panel of 442 kinases [3] worked out at 100.

Take `CCOc1cc(C(=O)N2CCC(N3CCN(C)CC3)CC2)ccc1Nc1ncc2c(n1)N(C1CCCC1)c1ccccc1C(=O)N2C` [Compound 26]: the “KINOMEscan: CSNK1G2” value on panel of 442 kinases [1] is 96. The “KINOMEscan: RSK2(Kin.Dom.1-N-terminal)” value at panel of 442 kinases [2] turned out to be 100. Besides, the “KINOMEscan: RIOK2” value at panel of 442 kinases [3] was 81.
